Experimental findings from patent publication US12728111B2, “Electrophilic compounds and electrophilic prodrugs for treating aneurysm” (University of Pittsburgh—Of the Commonwealth System of …, priority 2020, dated 2026) are described below.

For orientation: IC50 means the concentration that inhibits the measured activity by half.

Assay [1] relates to AngII/PCSK9-induced AAA mouse model. As to the kind of experiment: Ang II plus hypercholesterolemia (AngII/PCSK9) induced AAA mouse model. The class given is in vivo. Here is the method: FIG. 1. Characterization of the protective effect of NO2—OA (10-nitro-octadec-9-enoic acid) in the Ang II plus hypercholesterolemia-induced AAA mouse model. (A) Schematic illustration of the in vivo experimental design. Ten week old male C57BL/6 mice were IP injected with AAV carrying PCSK9 gain-of-function (D377Y) mutation and fed a western diet. After two weeks, each mouse was implanted with a pump delivering AngII at a rate of 1,500 ng/kg/min plus an additional pump containing either PEG-400 (vehicle), OA or NO2—OA with a delivery rate of 5 mg/kg/day (n=25 to 30 per group) and carried to the endpoint for another four weeks. Mice with ruptured aorta within the first week or with total plasma cholesterol less than 250 mg/dl were excluded from the study. (B) Representative morphological differences of the abdominal aorta. (C) AAA incidence calculated by using 1.2 mm as the cutoff diameter indicated by the dotted line in (D). (D) Average maximal diameter of the suprarenal aorta region. (E) Representative H&E and VVG staining of the paraffin-embedded suprarenal aortic cross-sections (5 μm). (F) Grade of elastic fiber degradation in the aorta (1 to 4). A 2×3 Fisher's exact test followed by posthoc test was performed for (C). For (D) and (F), the Kruskal-Wallis test followed by Dunn's multiple comparisons was performed. Continuous data are presented as mean±SEM. Scale bar=20 μm for (E). A p<0.05 for both the main test and post hoc test was considered statistically significant.
Ten weeks old male C57BL/6J mice were purchased from The Jackson Laboratory. The murine AAA model induced by AngII/PCSK9 gain-of-function mutation is well-established. After acclimation for 1 week, mice were fed a western diet (TD.88137, Envigo) and intraperitoneally injected with 2×1011 genomic copies of AAV-PCSK9.D377Y (AAV serotype 8, Penn Vector Core). Two weeks later, each mouse was subcutaneously implanted with two osmotic pumps (Model #2004, Alzet). One was loaded with AngII (#H-1706, Bachem), releasing at a rate of 1,500ng/kg/min, while the other one was loaded with PEG-400, OA or NO2—OA at a delivery rate of 5 mg/kg/day for OA or NO2—OA. After 4-weeks infusion, mice were euthanized and the maximal outer diameter of the suprarenal aorta was assessed with a digital caliper by a third person blinded to the treatment. Suprarenal aortas with a maximal diameter ≥50% larger than standard size (≥1.2 mm) were considered as abdominal aortic aneurysms. Mice dead within the first week of pump implantation or with a serum total cholesterol level less than 250 mg/dL were excluded from the study. All animal procedures were performed following the protocols approved by the Institutional Animal Care & Use Committee (IACUC) at the University of Michigan.
H&E and Verhoeff Van Gieson staining of paraffin or frozen sections of mouse suprarenal abdominal aorta were performed by the In-Vivo Animal Core at the University of Michigan. Elastin degradation grade was calculated as we previously reported.

The subject of assay [2] is leukocyte/macrophage infiltration in the vasculature. As to the kind of experiment: FACS of single cells from mouse suprarenal aorta. The note with it: mean±SEM. Format: in vivo. The source says: FIG. 2. […] (A) Quantification of gene expression levels in the mice suprarenal aorta region by real-time PCR (n=3 to 4). (B, C) Serum cytokines levels measured by ELISA (n=8 to 11). (D) FACS of single cells isolated from the mice suprarenal aorta region. Each sample is the pool of cells from three mice (n=3). (E, F) Quantification of the percentage of CD45+ leukocytes and CD64+, CD11c+M1-like macrophages in total cells from the FACS analysis. Ordinary one-way ANOVA followed by Tukey's test was performed for (A), (E) and (F). For ELISA in (B) and (C), to avoid the effect of the non-detected data point, a non-parametric Kruskal-Wallis test followed by Dunn's multiple comparisons was performed by adding zero to the missing data point. Data presented as mean±SEM. A p<0.05 for both the main test and post hoc test was considered statistically significant.
The suprarenal aorta region from euthanized mice were completely perfused with PBS containing 2% of heparin. Tissues were digested using a cocktail of 450 U/mL collagenase type I (#17100-017, Gibco), 125 U/mL collagenase type XI (#C7657, Sigma-Aldrich), 60 U/mL hyaluronidase type I-s (#H3606, Sigma-Aldrich) and 60 U/mL DNase-I (#10104159001, Roche) at 37° C. for 90 minutes. Single cells filtered through a 70 μm cell strainer were blocked by Fc block (#14-0161-85, eBioscience) for 5 minutes on ice. […] Data were analyzed using FlowJo v10.6.1.

Another assay has as its target T1, EP4 Gs-coupled receptor (Homo sapiens, UniProt P35408).
T1 construct: expressed in transfected cells; host or cells: 293T cells
The assay can be described thus: cAMP HTRF assay in 293T cells overexpressing EP4. The note with it: read-out: best-fit IC50, reduction of PGE2-induced recruitment of cAMP. Format: cell-based. How it is done:
(§1) FIG. 4. NO2—OA inhibits PGE2-dependent EP4 cAMP downstream signaling. (A) Three parameters nonlinear regression of EP4 global fitting dose-response curve. […] (B) HTRF assay of cAMP-Gs coupled receptor. […] (D) Representative figure of gelatin zymography indicating MMP 2/9 activity. BMDMs were incubated with L-902,688 (100 nM) plus vehicle, OA (2.5 μM) or NO2—OA (2.5 μM) for 12 h, and MMP 2&9 activity was measured by gelatin zymography. For (A) and (B), three or four parameters, global or separate fitting, constraints, and the significance of EC50 were determined in Prism. Data presented as mean±SEM. A p<0.05 was considered statistically significant.
Cells at 80% density were incubated on plates coated with transfection complex containing human EP4 receptors and a cAMP response element-regulated secreted alkaline phosphatase (SEAP) reporter. Activation of EP4 was quantified by adding a luminance-based alkaline phosphatase substrate and read in a chemiluminescence plate reader relative to the kit's standards. EP4 Inhibition assay was performed using cAMP-Gs HiRange kit (#62AM6PEB, Cisbio) following the manufacture's protocol and measured by Neo2 plate reader (BioTek, Winooski, Vt.). HTRF ratio (665/620) was converted to cAMP concentration using a cAMP standard.

The subject of a further assay is MMP9. As to the kind of experiment: Gelatin zymography in BMDMs, MMP9. The class given is cell-based, mouse. The note with it: 2.5 μM, 12 h. Here is the method:
as §1
Freshly differentiated BMDMs were cultured in the bone marrow macrophage-differentiation media until 80% confluence. […] Then, the supernatant was collected and centrifuged to remove any residual debris. Measurement of MMP2 and MMP9 activity was performed by running the supernatant (using detergent-free loading buffer) in 1% gelatin gel, followed by staining with Coomassie blue.

T1 sequence (P35408 whole entry): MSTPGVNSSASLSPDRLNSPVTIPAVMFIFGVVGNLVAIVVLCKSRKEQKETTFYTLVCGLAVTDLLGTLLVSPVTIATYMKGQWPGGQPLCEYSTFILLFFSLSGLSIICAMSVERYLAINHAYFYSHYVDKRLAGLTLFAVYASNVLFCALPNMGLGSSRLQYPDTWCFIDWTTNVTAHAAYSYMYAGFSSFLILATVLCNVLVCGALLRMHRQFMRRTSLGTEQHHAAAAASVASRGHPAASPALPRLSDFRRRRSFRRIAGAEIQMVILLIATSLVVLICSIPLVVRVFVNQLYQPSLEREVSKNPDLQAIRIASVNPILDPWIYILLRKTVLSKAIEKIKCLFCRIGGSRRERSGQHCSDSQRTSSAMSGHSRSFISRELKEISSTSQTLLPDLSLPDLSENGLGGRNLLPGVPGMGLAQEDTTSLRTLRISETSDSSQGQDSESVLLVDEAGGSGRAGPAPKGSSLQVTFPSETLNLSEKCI

For `CCCCCCCCC(=CCCCCCCCC(=O)O)[N+](=O)[O-]` [NO2—OA, 10-nitro-octadec-9-enoic acid], the AAA incidence in assay [1] (5 mg/kg/day subcutaneous infusion, after 4 weeks, cutoff diameter 1.2 mm) came out at 28.6%. Also, the “maximal diameter of the suprarenal aorta region” value in assay [1] (5 mg/kg/day subcutaneous infusion, after 4 weeks, mean±SEM) was found to be 1.16±0.09 mm. The “ECM degradation / elastin fiber degradation” value in assay [1] (5 mg/kg/day, 4 weeks, VVG staining, grade 1 to 4) is “significantly reduced”. In assay [2], the “leucocytes (CD45+) in the vasculature, percentage of total cells” value was found to be 14.87±3.28% and the “pro-inflammatory M1 like macrophages (CD64+, CD11c+), percentage of total cells” value came to 3.27±0.42%. Besides, the IC50 on EP4 Gs-coupled receptor was determined as 2800 nM. The “PGE2-upregulated MMP9 (gelatin zymography)” value with MMP9 is “significantly diminished”.
